Results as given in the NIST ThermoML archive (doi:10.1016/j.jct.2007.03.012).

Conditions: Liquid, Bellows volumetry

CCC [propane]
mass density [kg/m3]
Conditions | 280 K | 300 K | 320 K | 340 K | 360 K | 380 K | 400 K | 420 K | 440 K
1000 kPa | 520.5 | 489.81 | – | – | – | – | – | – | –
2000 kPa | 522.64 | 492.87 | 457.48 | – | – | – | – | – | –
3000 kPa | 524.74 | 495.95 | 462.23 | 418.14 | – | – | – | – | –
5000 kPa | 528.56 | 501.37 | 470.53 | 433.26 | 380.9 | – | – | – | –
10000 kPa | 537.44 | 512.99 | 486.59 | 457.48 | 424.08 | 384.1 | 334.74 | – | –
20000 kPa | 551.94 | 530.94 | 509.27 | 486.91 | 463.3 | 438.22 | 411.69 | 384.77 | 357.43
30000 kPa | 563.74 | 544.91 | 525.89 | 506.87 | 487.16 | 466.67 | 445.87 | 425.47 | 405.22
40000 kPa | 573.78 | 556.1 | 539.36 | 522.28 | 505.03 | 487.15 | 469.1 | 451.66 | 434.68
50000 kPa | 582.55 | 566.32 | 550.64 | 534.97 | 519.45 | 503.08 | 486.87 | 471.39 | 456.37
60000 kPa | 590.49 | 575.16 | 560.7 | 545.94 | 531.56 | 516.47 | 501.44 | 487.29 | 473.51
70000 kPa | 597.67 | 583.22 | 569.45 | 555.7 | 542.12 | 527.94 | 513.89 | 500.74 | 488.02
80000 kPa | 604.54 | 590.34 | 577.41 | 564.27 | 551.67 | 538.06 | 524.67 | 512.43 | 500.46
90000 kPa | 610.6 | 597.08 | 584.63 | 572.21 | 560.11 | 547.06 | 534.43 | 522.77 | 511.55
100000 kPa | 616.37 | 603.47 | 591.38 | 579.45 | 568.02 | 555.29 | 543.41 | 532.04 | 521.4
120000 kPa | 627.11 | 614.69 | 603.54 | 592.54 | 581.93 | 570.05 | 558.91 | 548.04 | 538.39
140000 kPa | 636.51 | 624.98 | 614.39 | 603.89 | 593.99 | 582.94 | 572.19 | 562.28 | 553.07
160000 kPa | 645.22 | 634.04 | 624.07 | 614.28 | 604.85 | 594.15 | 583.93 | 574.66 | 565.84
180000 kPa | 653.38 | 642.55 | 632.92 | 623.6 | 614.61 | 604.41 | 594.64 | 585.51 | 577.32
200000 kPa | 660.82 | 650.24 | 641.18 | 632.17 | 623.73 | 613.68 | 604.15 | 595.61 | 587.63
